Reference: patent US20120225889A1, “USE OF MACROCYCLIC LACTONE DERIVATIVES FOR THE TREATMENT OF INFLAMMATORY DISORDERS” (PIRAMAL LIFE SCIENCES LIMITED, priority 2010, published 2012)

Experiments:
[1] = test system: DBA/1J mice with collagen induced arthritis; assay: Collagen-induced arthritis in mice; assay type: in vivo; settings: compound of example 7 5 mg/kg, s.c., n=10; Enbrel 3 mg/kg, s.c., n=6; vehicle control 15.14+1.0
Experimental: The experiment was designed as in reference, J. Experimental Medicine, 162, 637-646 (1985), the disclosure of which is incorporated by reference for the teaching of the experiment.
Male DBA/1J mice with body weight range of 18-22 g, aged 8-10 weeks were immunized with an emulsion equivalent to 200 μg of type II collagen (Elastin products, USA) in Freund's Complete Adjuvant (Sigma, USA), injected intradermally at the base of the tail. The animals were boosted with 200 μg of freshly prepared typeII collagen emulsion emulsified in Freund's Complete Adjuant (Sigma, USA) on day 21. A group of naïve mice was also maintained alongside. Naïve animals are the animals which are neither immunized for induction of arthritis nor do they receive any treatment. This group is maintained to take care of the normal changes in the paw thickness with age.
From day 23, mice were examined daily once for the signs of rheumatoid arthritis, using the articular index and paw thickness as parameters. Articular index scoring was performed employing the following criteria:
• 0: No redness or swelling • 1: Redness, but no swelling • 2: Redness and swelling of the paw • 3: Redness and severe swelling of the paw Hind limbs: Scale 0-4 • 0: No redness or swelling • 1: Redness and mild swelling of paw • 2: Redness and moderate swelling of paw and/or swelling of at least one of the digits • 3: Redness and moderate/severe swelling of paw, swelling of ankle joint and/or swelling of one or more digits • 4: Redness and severe swelling of paw, digits and ankle joint, with joint stiffness Mice with a minimum hind paw score of 2, of even one paw, were inducted into the study. Mice were randomized into the various study groups, each group having at least eight animals, and were administered the vehicle (0.5% CMC, 10 mL/kg p.o. and s.c. twice daily), the test compound (5 mg/kg, p.o. and s.c., twice daily) and standard compound Enbrel (Wyeth Limited, UK), 3 mg/kg, s.c., once daily. The test compound was administered as a suspension in CMC. The requisite quantity of the compound was accurately weighed and was hand-pulverized using pestle-mortar. After mixing with minimum quantity of Tween 80 necessary to wet the compound, requisite quantity of 0.5% CMC solution was added and the compound was ground with CMC till the uniform suspension was obtained. Standard compound ‘Enbrel’ was used as an aqueous solution. The dosing of the compounds was done for 12 continuous days.
The following parameters were observed and recorded daily, • 1. Body weight • 2. Articular index • 3. Paw thickness of hind limbs only, in mm using a tension free calipers • 4. Any significant observation regarding the condition of the animals.
On 13th day morning, 1 h after the compound treatment, the animals were sacrificed, blood withdrawn, and plasma collected for drug level analyses. Also, the hind limbs of all the animals were preserved for histopathological evaluations.

[2] = test system: IL-6; assay: Screening in LPS stimulated THP-1 cells: IL-6; assay type: cell-based; settings: Homo sapiens, 24 h, ELISA
Experimental: (§1) IL-6 (BD Biosciences, USA) production by LPS (Escherchia coli 0127:B8, Sigma, USA) in THP-1 cells (ATCC number: TIB202) was designed as in reference, Journal of Immunology, 151, 5631-5638, (1993), the disclosure of which is incorporated by reference for the teaching of the assay.
(§2) THP-1 cells were cultured in RPMI 1640 culture medium (Gibco BRL, UK) containing 100 U/mL penicillin and […] streptomycin, (100× solution, Sigma, USA) containing 10% FBS (JRH Biosciences, USA). 25,000 cells were seeded per well in 96-well plate (Nunc, USA). The cells were differentiated with PMA (Sigma, USA, prepared as 100 μg/mL stock in RPMI and was diluted to 5 ng/mL). The test compound (prepared as 20 mM stock in DMSO and diluted with DMSO to achieve the following final concentrations in the assay: 100, 10, 1, 0.1, 0.01, 0.001 and 0.0001 μM) or vehicle (0.5% DMSO) were added to the cells and the cells were incubated for 30 min at 37° C. LPS (Sigma, USA, prepared as 1 mg/mL stock in PBS) was added to achieve a final concentration of 1 μg/mL. Plates were incubated at 37° C. for 24 h at 5% CO2. Supernatants were harvested, and assayed for TNF-α and IL-6 by ELISA as described by the manufacturer (BD Biosciences, USA). Percent inhibition of cytokine release compared to the control was calculated. The IC50 values were calculated by a nonlinear regression method.

[3] = test system: IFN-γ; assay: Cytokine release assay in hPBMCs: IFN-γ; assay type: cell-based; settings: Homo sapiens; Table 3: PHA-PMA induced hPBMC's, 48 h; read-out: IFN-γ IC50
Experimental: (§3) hPBMCs were obtained from healthy donors by centrifugation of heparinized venous blood over Ficoll/Hypaque solution (Histopaque-1077, Sigma, USA). Isolated hPBMCs were suspended in RPMI 1640 culture medium supplemented with 10% FBS and seeded at a density of 50,000 cells/well in a 96-well plate (Nunc, USA). The cells were incubated at 37° C., 5% CO2 for a period of 24 h. These cells were used for the lymphocyte proliferation as well as cytokine release assay.
(§4) The plated cells were treated with different concentrations of the test compound (prepared as mM stock in DMSO and diluted with DMSO to achieve the following final concentrations in the assay: 100, 10, 1, 0.1, 0.01, 0.001, 0.0001, 0.00001 and 0.000001 μM) and incubated for 30 min. The cells were then stimulated with PHA (prepared as 1 mg/mL stock in RPMI 1640 culture medium and used at a final concentration of 5 μg/mL). FK506 was used as a standard. The plates were incubated at 37° C., 5% CO2 for 48 h. The cytokines in the supernatant collected were detected using ELISA kit (BD biosciences, USA). The cytokines evaluated in the assay were TNF-α, IL-2, IL-6, and IFN-γ.

[4] = test system: TNF-α; assay: Screening in LPS stimulated THP-1 cells: TNF-α; assay type: cell-based; settings: Homo sapiens, 24 h, ELISA
Experimental: as §1, §2

[5] = test system: IL-6; assay: Human monocyte assay (LPS-induced): IL-6; assay type: cell-based; settings: LPS stimulated human monocytes, 5 h
From the text: The assay was designed as in reference, Physiological Research, 52, 593-598, (2003), the disclosure of which is incorporated by reference for the teaching of the assay.
The objective of the assay is to determine whether compounds of the present invention—mediated inhibition of LPS-induced cytokines from monocytic THP-1 cell line translates to physiologically relevant human cells. Accordingly, the effect of compounds of the present invention on LPS—induced cytokine production from freshly isolated human monocytes was ascertained.
Peripheral blood was collected from healthy donors into potassium EDTA vacutainer tubes (BD Biosciences, USA). hPBMCs were isolated using density gradient separation (Histopaque-1077; Sigma, USA) and suspended in assay medium which is RPMI culture medium (Sigma, USA) containing 10% heat inactivated FBS (JRH Biosciences, Australia), 100 U/mL penicillin (Sigma, USA) and […] streptomycin (Sigma, USA). Monocytes in the hPBMCs were counted using a Coulter Counter following which the cells were resuspended at 2×10^5 monocytes/mL of assay medium. A cell suspension containing 2×10^4 monocytes was aliquoted per well of a 96-well plate (Nunc, USA). Subsequently, the hPBMCs were incubated for 4-5 h at 37° C., 5% CO2. During the incubation, the monocytes adhered to the bottom of 96-well plate. Following the incubation, the non-adherent lymphocytes were washed and assay medium was added to adherent monocytes. After 48 h of incubation at 37° C., 5% CO2, monocytes were pre-treated with various concentrations of test compound (prepared as 20 mM stock in DMSO; 1 μL of […] concentrated solution of test compound was dissolved in 200 μL cell suspension to achieve a final concentration of 0.03, 0.1, 0.3, 1, 3, 10, 30 and 100 μM) or vehicle (0.5% DMSO) or 10 μM dexamethasone (standard IL-6 and TNF-α inhibitor, Sigma, USA) for 30 min at 37° C., 5% CO2 and stimulated with 1 μg/mL LPS (Escherchia coli 0111:B4, Sigma, USA). The cells were then incubated for 5 h at 37° C., 5% CO2 following which supernatants were collected, stored at −70° C. and were assayed later for IL-6, and TNF-α by ELISA (OptiEIA ELISA sets, BD Biosciences, USA). The IC50 values were calculated by a nonlinear regression method using Graph Pad software (Prism 3.03).

[6] = test system: IL-2; assay: Cytokine release assay in hPBMCs: IL-2; assay type: cell-based; settings: Homo sapiens; Table 3: PHA-PMA induced hPBMC's, 48 h; read-out: IL-2 IC50
Experimental: as §3, §4

[7] = test system: TNF-α; assay: Cytokine release assay in hPBMCs: TNF-α; assay type: cell-based; settings: Homo sapiens; Table 3: PHA-PMA induced hPBMC's, 48 h; read-out: TNF-α IC50
Experimental: as §3, §4

[8] = test system: IL-6; assay: Cytokine release assay in hPBMCs: IL-6; assay type: cell-based; settings: Homo sapiens; Table 3: PHA-PMA induced hPBMC's, 48 h; read-out: IL-6 IC50
Experimental: as §3, §4

Row | Compound | Histological score of the section of paws [1] | IC50 [2] [nM] | IC50 [3] [nM] | IC50 [4] [nM] | IC50 [5] [nM] | IC50 [6] [nM] | IC50 [7] [nM] | IC50 [8] [nM]
1 | Enbrel | 5.8+0.95 | – | – | – | – | – | – | –
2 | C/C=C/C(O)C(C)/C=C/C(=NOCC(=O)N1CCCCC1)C(C)C(O)C(C)C1OC(=O)/C(OC)=C/C(C)=C/C(C)C(O)C(CC)C(O)C(C)C/C(C)=C/C=C/C1OC (stereo in doubt) [Compound of example 13, (3Z,5E,13E,15E)-18-((5Z,6E,10E)-3,9-Dihydroxy-4,8-dimethyl-5-(2-oxo-2-(piperidin-1-yl)ethoxyimino)dodeca-6,10-dien-2-yl)-9-ethyl-8,10-dihydroxy-3,17-dimethoxy-5,7,11,13-tetramethyloxacyclooctadeca-3,5,13,15-tetraen-2-one] | – | 200 | 10000 | > 30000 | 1400 | 200 | 20 | 500
3 | C/C=C/C(O)C(C)/C=C/C(=O)NC(C)C(O)C(C)C1OC(=O)/C(OC)=C/C(C)=C/C(C)C(O)C(CC)C(O)C(C)C/C(C)=C/C=C/C1OC (stereo not drawn) [Compound of example 16, (2E,6E)-N-(4-((4E,6E,14E,16Z)-11-Ethyl-10,12-dihydroxy-3,17-dimethoxy-7,9,13,15-tetramethyl-18-oxooxacyclooctadeca-4,6,14,16-tetraen-2-yl)-3-hydroxypentan-2-yl)-5-hydroxy-4-methylocta-2,6-dienamide] | – | 30 | – | > 100000 | – | – | – | –
4 | C/C=C/C(O)C(C)/C=C/C(=NOCC(=O)O)C(C)C(O)C(C)C1OC(=O)/C(OC)=C/C(C)=C/C(C)C(O)C(CC)C(O)C(C)C/C(C)=C/C=C/C1OC (stereo in doubt) [Compound of example 10, ((Z)-((6E,10E)-2-((4E,6E,14E,16Z)-11-Ethyl-10,12-dihydroxy-3,17-dimethoxy-7,9,13,15-tetramethyl-18-oxooxacyclooctadeca-4,6,14,16-tetraen-2-yl)-3,9-dihydroxy-4,8-dimethyldodeca-6,10-dien-5-ylidene)aminooxy)acetic acid] | – | 2300 | 2000 | > 30000 | – | 200 | 200 | 20
5 | C/C=C/C(O)C(C)/C=C/C(=NOCC(=O)N1CCC(N2CCCCC2)CC1)C(C)C(O)C(C)C1OC(=O)/C(OC)=C/C(C)=C/C(C)C(O)C(CC)C(O)C(C)C/C(C)=C/C=C/C1OC (stereo in doubt) [Compound of example 14, (3Z,5E,13E,15E)-18-((5Z,6E,10E)-5-(2-(1,4′-Bipiperidin-1′-yl)-2-oxoethoxyimino)-3,9-dihydroxy-4,8-dimethyldodeca-6,10-dien-2-yl)-9-ethyl-8,10-dihydroxy-3,17-dimethoxy-5,7,11,13-tetramethyloxacyclooctadeca-3,5,13,15-tetraen-2-one] | – | 130 | 20 | 18000 | 150 | 5 | 20 | 10
6 | C/C=C/C(O)C(C)/C=C/C(=NOCC(=O)N1CCN(C)CC1)C(C)C(O)C(C)C1OC(=O)/C(OC)=C/C(C)=C/C(C)C(O)C(CC)C(O)C(C)C/C(C)=C/C=C/C1OC (stereo in doubt) [Compound of example 11, (3Z,5E,13E,15E)-18-((5Z,6E,10E)-3,9-Dihydroxy-4,8-dimethyl-5-(2-(4-methylpiperazin-1-yl)-2-oxoethoxyimino)dodeca-6,10-dien-2-yl)-9-ethyl-8,10-dihydroxy-3,17-dimethoxy-5,7,11,13-tetramethyloxacyclooctadeca-3,5,13,15-tetraen-2-one] | – | 300 | 5000 | > 30000 | > 10000 | 50 | 50 | 10
